Like-named read-outs stand apart in the source and are kept apart here.
Columns and labels:
rabbits = test: Pyrogenicity test; conditions: i.v., rabbit, feverish = rise of 0.6° C. or more
Method: In this test, rabbits were used and 5 ml/kg of the test compound diluted to a definite concentration with physiological saline was intravenously injected into each animal. Then the rectal temperature was measured. Rabbits showing an increase in the bodily temperature by 0.6° C. or more were referred to as feverish.

[1] = tested on: vesicular stomatitis virus (VSV); type: cell-based, vesicular stomatitis virus; mouse L929 cells
male C57BL mouse = test: Galactosamine-loaded lethal toxicity test; type: in vivo; conditions: 16 mg D-galactosamine/HCl i.p., compound i.v., 24 hours
Method: The galactosamine-loaded lethal toxicity was determined by using the following experimental system.
16 mg of D-galactosamine/HCl was intraperitoneally administered to a male C57BL mouse aged 8 weeks. Immediately thereafter, the compound of the present invention was intravenously injected into the animal and the conditions were observed after 24 hours.

[2] = tested on: BALB/c mouse spleen cells; test: Mitogenic activity (3H-thymidine incorporation into mouse spleen cells)
anti-BSA IgG antibody = test: Adjuvant activity (serum anti-BSA IgG by ELISA); type: in vivo, mouse (BALB/c); conditions: 100 μg compound with 100 μg BSA in FIA, s.c., days 0 and 28; day 5 after booster; BSA alone = 1.00
Method: In this test, male BALB/c mice (each group having 6 animals) were used. On the days 0 and 28, 100 μg of bovine serum albumin (BSA) containing 100 μg of the compound of the present invention on the comparative compound or no such a compound was subcutaneously injected into each animal in the form of a water-in-oil type emulsion in Freund's incomplete adjuvant (FIA). On the day 5 following the booster, the level of anti-BSA IgG antibody formed in the serum was determined by the ELISA method. […] [formula]

[3] = tested on: BALB/c mouse spleen cells; test: Polyclonal B cell activation activity (ELISPOT); conditions: 72 hours
[4] = tested on: Moloney virus-induced lymphoma YAC-1; test: NK (natural killer) activity of spleen cells from treated mice against YAC-1 (51Cr release); type: in vivo, mouse (BALB/c)
Method: This test was carried out in the following manner. […] On the day 14, the spleen cells of the animal were collected. To the prepared spleen cells (1×10^6 cells/0.1 ml), target cells (Moloney virus-inducedlymphoma YAC-1; 2×10^4 cells/ml) labeled with ^51 Cr were added followed by the incubation for 4 hours. […] After the completion of the incubation, 0.1 ml of the culture supernatant was collected and the amount (radiation dose) of ^51 Cr liberated due to the damage in the target cells was measured. Then the NK activity (%) was calculated by substituting each value in accordance with the following formula. NK Activity (%)={(Radioactivity of test group-Radioactivity of minimum free control group)(cpm)/(Radioactivity maximum free control group-Radioactivity of minimum free control group)(cpm)}

TNF-α = test: Cytokine inducing activity: TNF-α (ELISA), human peripheral blood monocytes; type: cell-based; conditions: 24 hours
Method: (§1) The cytokine inducing activity was tested by using an ELISA system for assaying TNF-α (manufactured by Amersham Japan) and another ELISA system for assaying IL-1β (manufactured by Otsuka Pharmaceutical Co., Ltd.). […] Then the cytokines in the culture supernatant were assayed by the ELISA method.

IL-1β = test: Cytokine inducing activity: IL-1β (ELISA), human peripheral blood monocytes; type: cell-based
Method: as §1

[5] = tested on: methylcholanthrene-induced fibrosarcoma (Meth A); test: Antitumor activity (macrophage cytostatic activity on Meth A fibrosarcoma); type: cell-based, mouse (BALB/c)
Method: This test was effected by examining a cytostatic activity on methylcholanthrene-induced fibrosarcoma (Meth A). Namely, adherent cells (macrophages) were collected from spleen cells of a BALB/c mouse. […] Then the ^3 H-thymidine-uptake suppression ratio was calculated by substituting the obtained values in accordance with the following formula and the result was expressed as the cytostatic activity on macrophages.
Cytostatic Activity (%)={1-(Radioactivity of macrophages and target cells-Radioactivity of macrophages alone)(cpm)/(Radioactivity of target cells along)}×100

male rabbit = test: Local Shwartzman reaction; type: in vivo; conditions: 100 μg/site intradermal, elicitation with Salmonella minnesota LPS i.v.
Method: This test was carried out in the following manner. The test compound, which had been diluted to a definite concentration with 0.2 ml of physiological saline, was intradermally injected into a male rabbit. After 24 hours, 100 μg/ml/kg of Salmonella minnesota 9700 LPS-W (manufactured by Difco) was intravenously injected into the animal for elicitation. After 4 hours, intradermal hemorrhage was observed.

[6] = tested on: Tachypleus tridentatus lysate; conditions: Pregel reagent, gel formation
[7] = tested on: IL-1 receptor antagonist (IL-1ra); test: IL-1 receptor antagonist (IL-1ra) production (ELISA), human peripheral blood monocytes; type: cell-based
[8] = Mus musculus, read-out: Mitogen activity, Stimulation Index

CCCCCCCCCCCCCC(=O)OC(CCCCCCCCCCC)CC(=O)O[C@@H]1[C@@H](NC(=O)CC(CCCCCCCCCCC)OC(=O)CCCCCCCCCCC)[C@H](OC[C@H]2O[C@H](OP(=O)(O)O)[C@H](NC(=O)CC(O)CCCCCCCCCCC)[C@@H](OC(=O)CCCCCCCCCCCCC)[C@@H]2O)O[C@H](CO)[C@H]1OP(=O)(O)O (stereo partly drawn) [Comparative compound 506, 6-O-[2-deoxy-2-(3-dodecanoyloxytetradecanoylamino)-3-O-(3-tetra-decanoyloxytetradecanoyl)-4-O-phosphono-β-D-glucopyranosyl]-2-deoxy-2-(3-hydroxytetradecanoylamino)-3-O-tetradecanoyl-1-O-phosphono-α-D-glucopyranose, reference compound]
Pyrogenicity (rabbits; dose of 0.01 μg): showed pyrogenicity
Antiviral activity (reciprocal of the dilution ratio to the 1 mg/ml sample wherein L929 cells survived at a ratio of 50%) [1]: 2.2
Galactosamine-loaded lethal toxicity, LD50 (male C57BL mouse): 0.0079 µg
Mitogen activity, Stimulation Index ([2]; 50 μg/ml): 6.28
Adjuvant activity, Stimulation Index (anti-BSA IgG antibody): 1.99
Polyclonal B cell activation activity, Stimulation Index ([3]; 10 μg per 2.5×10^6 cells): 15.7
Polyclonal B cell activation activity, Stimulation Index ([3]; 100 μg per 2.5×10^6 cells): 20.7

CCCCCCCCCCCCCCCC(=O)OC(CCCCCCCCCCCC(C)C)CC(=O)NC1C(OCC2OC(OP(=O)(O)O)C(NC(=O)CC(O)CCCCCCCCCCCC(C)C)C(O)C2O)OC(CO)C(O)C1O (stereo not drawn) [Invention compound]
Pyrogenicity (rabbits; dose of 10 μg/kg): showed no pyrogenicity
NK activity ([4]; 100 μg i.v. on days 0 and 7, spleen cells collected day 14, BALB/c mouse, YAC-1 targets, 4 hours): 50.1%
NK activity, comparison with synthetic lipid A 506 ([4]; 100 μg i.v. on days 0 and 7, in words): comparable to the synthetic lipid A 506
activity of inducing the production of TNF-α (TNF-α): little activity
Antiviral activity (reciprocal of the dilution ratio to the 1 mg/ml sample wherein L929 cells survived at a ratio of 50%) ([1]; VSV 100 TCID50/0.1 ml on L929 cells, 24 hours): 4.9
suppression of the production of IL-1β induced by LPS originating in Escherichia coli (IL-1β; added simultaneously, 50 times as much as LPS): suppressed the production of IL-1β
suppression of the production of IL-1β induced by compound 506 (IL-1β; added simultaneously, 50 times as much as synthetic lipid A 506): suppressed the production of IL-1β
activity of inducing the production of IL-1β (IL-1β; human peripheral blood monocytes, 24 hours): little activity
inhibition at 10 µg/mL ([5]; 24 h, 10 μg/ml, Meth A with mouse macrophages): 58.6%
inhibition at 100 µg/mL ([5]; 24 h, 100 μg/ml, Meth A with mouse macrophages): 64%
Cytostatic activity, comparison with synthetic lipid A 506 ([5]; in words): comparable to that of the synthetic lipid A 506
Galactosamine-loaded lethal toxicity, LD50 (male C57BL mouse): > 10 µg
fold induction at 5 µg/mL [2, 8]: 4.17
fold induction at 50 µg/mL [2, 8]: 7.46
Adjuvant activity, Stimulation Index (anti-BSA IgG antibody): 2.48
Local Shwartzman reaction, hemorrhage (male rabbit): no hemorrhage
Limulus test, minimum effective dose relative to that of the synthetic lipid A 506 [6]: 1,000 times
production of IL-1ra in the culture supernatant, compared with synthetic lipid A 506 [7]: in a larger amount than the synthetic lipid A 506 did
Polyclonal B cell activation activity, Stimulation Index ([3]; 10 μg per 2.5×10^6 cells): 22.0
Polyclonal B cell activation activity, Stimulation Index ([3]; 100 μg per 2.5×10^6 cells): 30.3
